Data published in US20240174671A1, “New 2,3-Dihydro-1H-pyrrolo[3,2-b]pyridine Derivatives as Sigma Ligands” (ACONDICIONAMIENTO TARRASENSE, priority 2021, published 2024).
Read-outs that look alike come from different tables or passages of the source.

Tests used:
human σ2/TMEM97 receptor = molecular target: T1, human σ2/TMEM97 receptor (Homo sapiens, UniProt Q5BJF2); test: Binding assay to human σ2/TMEM97 receptor ([3H]-DTG); conditions: transfected HEK-293 membranes, 10 nM [3H]-DTG, 25° C., 120 minutes; read-out: Binding σ-[…] (binding to σ2-receptor expressed as Ki)
T1 construct: expressed in transfected cells; host or cells: HEK-293
Experimental: Binding Assay to Human σ2/TMEM97 Receptor.
Transfected HEK-293 membranes (15 μg) were incubated with 10 nM [^3H]-1,3-Di-o-tolylguanidine (DTG) in assay buffer containing Tris-HCl 50 mM at pH 8.0. NSB (non-specific binding) was measured by adding 10 μM haloperidol. The binding of the test compound was measured at either one concentration (% inhibition at 1 or 10 µM) or five different concentrations to determine affinity values (Ki). Plates were incubated at 25° C. for 120 minutes. After the incubation period, the reaction mix was transferred to MultiScreen HTS, FC plates (Millipore), filtered and washed 3 times with ice-cold 10 mM Tris-HCL (pH 8.0). Filters were dried and counted at approximately 40% efficiency in a MicroBeta scintillation counter (Perkin-Elmer) using EcoScint liquid scintillation cocktail.

human σ1 receptor = molecular target: T2, human σ1 receptor (Homo sapiens, UniProt Q99720); test: Human σ1 receptor radioligand assay ([3H](+)-pentazocine); type: binding
T2 construct: expressed in transfected cells; host or cells: HEK-293
Experimental: Human σ1 Receptor Radioligand Assay
NBS (non-specific binding) was measured by adding 10 μM haloperidol. The binding of the test compound was measured at either one concentration (% inhibition at 1 or 10 µM) or five different concentrations to determine affinity values (Ki). Plates were incubated at 37° C. for 120 minutes. After the incubation period, the reaction mix was then transferred to MultiScreen HTS, FC plates (Millipore), filtered and plates were washed 3 times with ice-cold 10 mM Tris-HCL (pH7.4). Filters were dried and counted at approximately 40% efficiency in a MicroBeta scintillation counter (Perkin-Elmer) using EcoScint liquid scintillation cocktail.

[1] = transfected HEK-293 membranes, 5 nM [3H](+)-pentazocine, 37° C., 120 minutes, read-out: Binding σ-[…] (binding to σ1-receptor expressed as Ki)

T1 sequence (Q5BJF2 whole entry): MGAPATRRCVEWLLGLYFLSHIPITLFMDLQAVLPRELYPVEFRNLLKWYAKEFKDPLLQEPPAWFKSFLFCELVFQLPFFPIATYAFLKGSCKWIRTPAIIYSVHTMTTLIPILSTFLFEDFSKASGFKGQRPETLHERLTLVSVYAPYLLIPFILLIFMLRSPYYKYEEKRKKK
T2 sequence (Q99720 whole entry): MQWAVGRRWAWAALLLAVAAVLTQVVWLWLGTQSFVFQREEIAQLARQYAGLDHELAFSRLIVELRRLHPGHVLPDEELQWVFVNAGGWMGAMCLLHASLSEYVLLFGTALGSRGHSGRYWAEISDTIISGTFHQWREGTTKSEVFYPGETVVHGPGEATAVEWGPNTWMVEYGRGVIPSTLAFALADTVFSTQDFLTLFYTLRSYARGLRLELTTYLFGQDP

Compound	Ki (human σ2/TMEM97 receptor) [µM]	Ki (human σ1 receptor; [1]) [µM]	Ki (human σ1 receptor) [µM]
Cc1ccc2c(n1)C(C)(C)CN2C(=O)NCC(c1ccccc1)N1CCCC1 (centres unmarked) [Example 7, 3,3,5-trimethyl-N-(2-phenyl-2-(pyrrolidin-1-yl)ethyl)-2,3-dihydro-1H-pyrrolo[3,2-b]pyridine-1-carboxamide]	> 1	0.1 to 0.5	
COc1ccc2c(n1)C(C)(C)CN2C(=O)NC[C@@H](c1ccccc1)N(C)C [Example 17, (R)—N-(2-(dimethylamino)-2-phenylethyl)-5-methoxy-3,3-dimethyl-2,3-dihydro-1H-pyrrolo[3,2-b]pyridine-1-carboxamide]	> 1	< 0.1	
Cc1ccc2c(n1)C(C)(C)CN2C(=O)[C@H]1CC[C@H](N(C)Cc2ccccc2F)CC1 [Example 183, ((1r,4r)-4-((2-fluorobenzyl)(methyl)amino)cyclohexyl)(3,3,5-trimethyl-2,3-dihydro-1H-pyrrolo[3,2-b]pyridin-1-yl)methanone]	< 0.1		< 0.1
Cc1ccc2c(n1)C(C)(C)CN2C(=O)N1CCC(N(C)Cc2ccc(N(C)C)cc2)CC1 [Example 68, (4-((4-(dimethylamino)benzyl)(methyl)amino)piperidin-1-yl)(3,3,5-trimethyl-2,3-dihydro-1H-pyrrolo[3,2-b]pyridin-1-yl)methanone]	< 0.1	0.1 to 0.5	
Cc1ccc2c(n1)C(C)(C)CN2C(=O)N[C@@H]1CCN(Cc2ccccc2)C1 [Example 18, (R)—N-(1-benzylpyrrolidin-3-yl)-3,3,5-trimethyl-2,3-dihydro-1H-pyrrolo[3,2-b]pyridine-1-carboxamide]	0.1 to 0.5	0.1 to 0.5	
CN(C)[C@@H](CNC(=O)N1CC(C)(C)c2nc(C#N)ccc21)c1ccccc1 [Example 15, (R)-5-cyano-N-(2-(dimethylamino)-2-phenylethyl)-3,3-dimethyl-2,3-dihydro-1H-pyrrolo[3,2-b]pyridine-1-carboxamide]	> 1		< 0.1
COc1ccc(CN(C)C2CCN(C(=O)N3CC(C)(C)c4nc(C)ccc43)CC2)cc1 [Example 58, (4-((4-methoxybenzyl)(methyl)amino)piperidin-1-yl)(3,3,5-trimethyl-2,3-dihydro-1H-pyrrolo[3,2-b]pyridin-1-yl)methanone]	0.1 to 0.5	0.1 to 0.5	
Cc1ccc2c(n1)C(C)(C)CN2C(=O)NC[C@@H](c1cccc(F)c1)N(C)C [Example 34, (R)—N-(2-(dimethylamino)-2-(3-fluorophenyl)ethyl)-3,3,5-trimethyl-2,3-dihydro-1H-pyrrolo[3,2-b]pyridine-1-carboxamide]	> 1	0.1 to 0.5	
Cc1ccc2c(n1)C(C)(C)CN2C(=O)N1CCC(CN(C)Cc2ccccc2)CC1 [Example 66, (4-((benzyl(methyl)amino)methyl)piperidin-1-yl)(3,3,5-trimethyl-2,3-dihydro-1H-pyrrolo[3,2-b]pyridin-1-yl)methanone]	0.1 to 0.5	0.1 to 0.5	
Cc1ccc2c(n1)CCN2C(=O)N1CCC(N(C)Cc2ccccc2)CC1 [Example 49]	0.1 to 0.5	0.1 to 0.5	
CN(Cc1ccccc1)[C@H]1CCCN(C(=O)N2CCc3ncccc32)C1 [Example 61, (S)-(3-(benzyl(methy)amino)piperidin-1-yl)(2,3-dihydro-1H-pyrrolo[3,2-b]pyridin-1-yl)methanone]	< 0.1	> 1	
Cc1ccc2c(n1)C(C)(C)CN2C(=O)NC1CCN(Cc2ccc(F)c(F)c2)CC1 [Example 44, N-(1-(3,4-difluorobenzyl)piperidin-4-yl)-3,3,5-trimethyl-2,3-dihydro-1H-pyrrolo[3,2-b]pyridine-1-carboxamide]	> 1	< 0.1	
Cc1ccc2c(n1)C(C)(C)CN2C(=O)[C@H]1CC[C@H](NCc2ccccc2F)CC1 [Example 188, ((1r,4r)-4-((2-fluorobenzyl)amino)cyclohexyl)(3,3,5-trimethyl-2,3-dihydro-1H-pyrrolo[3,2-b]pyridin-1-yl)methanone]	< 0.1	< 0.1	
CN(Cc1ccccc1)[C@H]1CC[C@H](C(=O)N2CC(C)(C)c3ncc(F)cc32)CC1 [Example 187, ((1r,4r)-4-(benzyl(methyl)amino)cyclohexyl)(6-fluoro-3,3-dimethyl-2,3-dihydro-1H-pyrrolo[3,2-b]pyridin-1-yl)methanone]	< 0.1	< 0.1	

Now from value to compound, other results behind:

Ki (human σ2/TMEM97 receptor) [µM]	Ki (human σ1 receptor; [1]) [µM]	Compound	Ki (human σ1 receptor) [µM]
< 0.1	< 0.1	CC1(C)CN(C(=O)N2CCC3(CCN(Cc4ccc(F)cc4)CC3)C2)c2cccnc21 [Example 149, (3,3-dimethyl-2,3-dihydro-1H-pyrrolo[3,2-b]pyridin-1-yl)(8-(4-fluorobenzyl)-2,8-diazaspiro[4.5]decan-2-yl)methanone]	
< 0.1	< 0.1	CN(Cc1ccccc1F)[C@H]1CC[C@H](C(=O)N2CC(C)(C)c3ncccc32)CC1 [Example 175, (3,3-dimethyl-2,3-dihydro-1H-pyrrolo[3,2-b]pyridin-1-yl)((1r,4r)-4-((2-fluorobenzyl)(methyl)amino)cyclohexyl)methanone]	
0.5 to 1	< 0.1	CC1(C)CN(C(=O)NC2CCN(Cc3ccccc3)CC2)c2cc(F)cnc21 [Example 31, N-(1-benzylpiperidin-4-yl)-6-fluoro-3,3-dimethyl-2,3-dihydro-1H-pyrrolo[3,2-b]pyridine-1-carboxamide]	
< 0.1	< 0.1	CC1(C)CN(C(=O)N2CCC3(CCN(Cc4ccccc4F)CC3)CC2)c2cccnc21 [Example 145, (3,3-dimethyl-2,3-dihydro-1H-pyrrolo[3,2-b]pyridin-1-yl)(9-(2-fluorobenzyl)-3,9-diazaspiro[5.5]undecan-3-yl)methanone]	
< 0.1	< 0.1	CC1(C)CN(C(=O)N2CCC3(CCN(Cc4cccc(F)c4)CC3)C2)c2cccnc21 [Example 152, (3,3-dimethyl-2,3-dihydro-1H-pyrrolo[3,2-b]pyridin-1-yl)(8-(3-fluorobenzyl)-2,8-diazaspiro[4.5]decan-2-yl)methanone]	
> 1	0.1 to 0.5	Cc1ccc2c(n1)C(C)(C)CN2C(=O)NC1CCN(Cc2cccc(C#N)c2)CC1 [Example 23, N-(1-(3-cyanobenzyl)piperidin-4-yl)-3,3,5-trimethyl-2,3-dihydro-1H-pyrrolo[3,2-b]pyridine-1-carboxamide]	
< 0.1	0.1 to 0.5	Cc1ccc2c(n1)C(C)(C)CN2C(=O)N1CCC2(CCN(Cc3ccccc3)C2)CC1 [Example 38, (2-benzyl-2,8-diazaspiro[4.5]decan-8-yl)(3,3,5-trimethyl-2,3-dihydro-1H-pyrrolo[3,2-b]pyridin-1-yl)methanone]	
< 0.1	0.5 to 1	Cc1ccc2c(n1)C(C)(C)CN2C(=O)N1CCC2(CCN(CC3CCOCC3)CC2)C1 [Example 105, (8-((tetrahydro-2H-pyran-4-yl)methyl)-2,8-diazaspiro[4.5]decan-2-yl)(3,3,5-trimethyl-2,3-dihydro-1H-pyrrolo[3,2-t]pyridin-1-yl)methanone]	
0.1 to 0.5	< 0.1	CC1(C)CN(C(=O)N2CCC3(CCN(Cc4ccc(C#N)c(F)c4)CC3)CC2)c2cccnc21 [Example 146, 4-((9-(3,3-dimethyl-2,3-dihydro-1H-pyrrolo[3,2-b]pyridine-1-carbonyl)-3,9-diazaspiro[5.5]undecan-3-yl)methyl)-2-fluorobenzonitrile]	
< 0.1	< 0.1	CC1(C)CN(C(=O)N2CCC3(CCN(Cc4ccc(F)c(C#N)c4)CC3)CC2)c2cccnc21 [Example 147, 5-((9-(3,3-dimethyl-2,3-dihydro-1H-pyrrolo[3,2-b]pyridine-1-carbonyl)-3,9-diazaspiro[5.5]undecan-3-yl)methyl)-2-fluorobenzonitrile]	
< 0.1	> 1	Cc1ccc2c(n1)C(C)(C)CN2C(=O)N1CCC2(CCN(Cc3cccc(C#N)c3)CC2)C1 [Example 92, 3-((2-(3,3,5-trimethyl-2,3-dihydro-1H-pyrrolo[3,2-b]pyridine-1-carbonyl)-2,8-diazaspiro[4.5]decan-8-yl)methyl)benzonitrile]	
< 0.1	0.1 to 0.5	Cc1ccc2c(n1)C(C)(C)CN2C(=O)N1CCC(N(C)Cc2ccc(F)c(C#N)c2)CC1 [Example 60, 2-fluoro-5-((methyl(1-(3,3,5-trimethyl-2,3-dihydro-1H-pyrrolo[3,2-b]pyridine-1-carbonyl)piperidin-4-yl)amino)methyl)benzonitrile]	
0.1 to 0.5	0.1 to 0.5	Cc1ccc2c(n1)C(C)(C)CN2C(=O)N1CCC2(CCN(C(C)c3ccccc3)CC2)C1 (centres unmarked) [Example 96, (8-(1-phenylethyl)-2,8-diazaspiro[4.5]decan-2-yl)(3,3,5-trimethyl-2,3-dihydro-1H-pyrrolo[3,2-b]pyridin-1-yl)methanone]	
< 0.1	0.1 to 0.5	CC1(C)CN(C(=O)N2CCC3(CCN(Cc4ccc(C#N)cc4F)CC3)C2)c2cccnc21 [Example 157, 4-((2-(3,3-dimethyl-2,3-dihydro-1H-pyrrolo[3,2-b]pyridine-1-carbonyl)-2,8-diazaspiro[4.5]decan-8-yl)methyl)-3-fluorobenzonitrile]	
